From patent US9265771B2, “Method for treating Lyme disease” (Zoetis Services LLC, priority 2012, dated 2016)
Read-outs that look alike come from different tables or passages of the source.

How the values were obtained:
B. burgdorferi [1] = assay: Study A: bacterial culture of skin biopsy samples for spirochetes; assay type: in vivo, beagle dogs
Experimental: Twenty-three adult female beagle dogs were used in this study; all were sero-negative for Borrelia, not vaccinated with any Borrelia spp vaccines, and acclimated at the study facility for seven days prior to any study activities. The study was conducted under National Research Council guidelines (1996. Dogs were randomized to a non-infected control (n=7 dogs) group, or infected groups (n=8 dogs/region) using ticks from two regions of the USA, Region A (New England (NE), i.e., Rhode Island) and Region B (Midwest (MW), i.e., Wisconsin). Dogs were infected on Day 0 with up to 30 Ixodes scapularis ticks per dog. Tick attachment was monitored daily and after nine days, remaining ticks were harvested and all dogs were treated with two topical applications of an approved acaricide observing a 30-day interval between applications. Dogs were monitored 21-days post-challenge for pyrexia, and the entire post-challenge period for clinical signs of Lyme disease (lameness, ataxia, anorexia, lymphadenopathy and depression).
Blood was collected from each dog weekly to Day 28, then every two-weeks for the remainder of the study (166 days). […] Two skin punch biopsies were collected near tick attachment sites from each dog every 28 days post-challenge for bacterial culture.
On Days 83 and 97, Convenia was administered (8 mg/kg bodyweight; subcutaneous injection). Treated dogs, 8 B. burgdorferi-positive and 4 controls, were compared to untreated cohorts (8 B. burgdorferi-positive, and 3 controls). Comparisons included serology, skin culture results and joint pathology.

B. burgdorferi [2] = assay: Study B: QC6 ELISA in tick-infected dogs; assay type: in vivo, beagle dogs; conditions: 8 dogs/group
Description: Three outer surface proteins (Osp) on B. burgdorferi are important for diagnosis and prevention, and are expressed by the organism in response to its local environment. […] OspF is another surface protein that is generally observed in late-stage disease. The C in […] refers to a 25-amino acid, C6 peptide in the sixth invariable region of an outer membrane lipoprotein (VIsE). Antibody against C6 is highly accurate as a serologic diagnosis of Lyme disease independent of a subject's (e.g., canine) vaccination status. Further, the generation of C6 antibodies implies an active infection with viable spirochetes. Serological methods for detecting B. burgdorfer/Lyme disease were conducted using the IDEXX qualitative SNAP-4Dx ELISA and the Quantitative C6 (Quant C6 or QC6) diagnostic kits, which are enzyme linked immunosorbent assays against the previously described 25-amino-acid C6 peptide. QC6 ELISA data, units/mL, are useful for guidance in initiating and evaluating response to therapy (See Levy S A, O'Connor T P, Hanscom J L, Shields P, et al. Quantitative measurement of a C6 antibody following antibiotic treatment of Borrelia burgdorferi antibody-positive, nonclinical dogs. Clin Vacc Immunol 2008; 15(1):115-119 and Littman M P, Goldstein R E, Labato M A, et al. ACVIM Small Animal Concensus Statement on Lyme Disease in Dogs: Diagnosis, Treatment and Prevention. J Vet Intern Med 2006; 20: 422-434).
(§1) Thirty-two (18 male and 14 female) beagle dogs were sero-negative for Borrelia burgdorferi, not vaccinated with any Borrelia spp vaccines, and acclimated at the study facility for seven days. The study was conducted under National Research Council guidelines (1996). […] Field-caught Ixodes from the northeast USA were placed on the dogs without containment chambers for 10 days; after ticks fed to repletion, dogs were treated with two applications of an approved topical acaricide with a 30-day interval between applications.
(§2) Forty days post-challenge, and prior to antibiotic treatments, blood was collected from each dog as were two skin biopsy punch samples near tick attachment sites. Blood was collected approximately monthly post-treatment. Skin biopsies were taken near the tick attachment site on Days 48/49, 118, 146, 180, and 315. Serum antibodies to Borrelia were assayed using the IDEXX SNAP-4Dx and QC6 ELISA. In cooperation with Cornell University, serum samples were analyzed using fluorescent-bead-based multiplex assays detecting antibodies against B. burgdorferi outer surface proteins OspA, OspC, and OspF. Data were expressed as median fluorescent intensities (MFI), and shown to be specific and sensitive to provide interpretative guidelines regarding infection. The skin biopsies were collected for a polymerase chain reaction (PCR; FlaB) assay and cultured for spirochete detection. At the end of the study, blood and skin biopsies were collected and synovial tissue from the joints were harvested at necropsy.
On Day 75 and Day 89 Convenia was administered to the eight dogs in T04 (8 mg/kg bodyweight; subcutaneous injection). The other treated groups received their respective regimens daily and orally for 30 days from Days 75 to 104. […] Dogs in T01 served as infected, untreated, controls. Inter-treatment comparisons to evaluate antibiotic efficacy included clinical signs, serology, culture results and pathology.

[3] = canine; cited from earlier work
[4] = feline; cited from earlier work
[5] = test system: B. burgdorferi outer surface protein OspF; assay: Study B: fluorescent-bead-based multiplex assay, antibodies against OspF; assay type: in vivo, beagle dogs; conditions: for Multiplex Assay OspF: No. Dogs > Positive Threshold (# dogs > 1500): 8 dogs/group
Experimental: as §1
as §2, with “Data were expressed as median fluorescent intensities (MFI), and shown to be specific and sensitive to provide interpretative guidelines regarding infection.” left out
On Day 75 and Day 89 Convenia was administered to the eight dogs in T04 (8 mg/kg bodyweight; subcutaneous injection). The other treated groups received their respective regimens daily and orally for 30 days from Days 75 to 104. […] Dogs in T01 served as infected, untreated, controls.

B. burgdorferi [6] = assay: Study A: joint culture and microscopic pathology of joints and skin; assay type: in vivo, beagle dogs
Experimental: Comparisons included serology, skin culture results and joint pathology.
Ten joints from each dog were cultured for spirochetes and examined microscopically for changes. Joints included carpus, elbow, shoulder, stifle and tarsus on both the right and left, front and rear limbs. Skin sections were also examined for Lyme disease related changes (pathology). There were six joints from untreated dogs that cultured positive for spirochetes compared to none from dogs treated with Convenia. Microscopically, all untreated, infected dogs had skin sections with inflammatory and other changes as described for Lyme disease, whereas six of eight (75%) treated dogs had similar findings. With the exception of one treated dog with all joints free of pathology, all other dogs had at least two joints showing Lyme disease changes. Despite the microscopic findings, definitively attributing joint pathology to infection or amelioration of pathology as a result of Convenia therapy was equivocal.

[7] = prior to treatment, of eight dogs

SMILES: CO/N=C(\C(=O)N[C@@H]1C(=O)N2C(C(=O)[O-])=C([C@@H]3CCCO3)CS[C@H]12)c1csc(N)n1.[Na+] [Convenia, (6R,7R)-7-[[(2Z)-(2-amino-4-thiazolyl)(methoxyimino)acetyl]-amino]-8-oxo-3-[(2S)-tetrahydro-2-furanyl]-5-thia-1-azabicyclo[4.2.0]oct-2-ene-2-carboxylic acid, monosodium salt]
- Bacterial culture of skin for spirochetes (B. burgdorferi [1]; post-treatment (Days 111 to 166), 8 mg/kg sc Days 83 and 97): all were negative on bacterial culture
- Dogs culture-positive for spirochetes from skin (B. burgdorferi [1]; [7]): 88%
- Number of dogs culture-positive for spirochetes from skin (B. burgdorferi [1]; [7]): Seven
- Dogs Sero-converted to B. burgdorferi per QC6 ELISA (≧30 U/mL), (%) (B. burgdorferi [2]; Day 48 (pre-treatment)): 75.0%
- Number of Dogs Sero-converted to B. burgdorferi per QC6 ELISA (≧30 U/mL), No. (B. burgdorferi [2]; Day 48 (pre-treatment)): 6
- Dogs Sero-converted to B. burgdorferi per QC6 ELISA (≧30 U/mL), (%) (B. burgdorferi [2]; Day 111): 75.0%
- Number of Dogs Sero-converted to B. burgdorferi per QC6 ELISA (≧30 U/mL), No. (B. burgdorferi [2]; Day 111): 6
- Dogs Sero-converted to B. burgdorferi per QC6 ELISA (≧30 U/mL), (%) (B. burgdorferi [2]; Day 145): 0.0%
- Number of Dogs Sero-converted to B. burgdorferi per QC6 ELISA (≧30 U/mL), No. (B. burgdorferi [2]; Day 145): 0
- Dogs Sero-converted to B. burgdorferi per QC6 ELISA (≧30 U/mL), (%) (B. burgdorferi [2]; Day 179): 0.0%
- Number of Dogs Sero-converted to B. burgdorferi per QC6 ELISA (≧30 U/mL), No. (B. burgdorferi [2]; Day 179): 0
- Dogs Sero-converted to B. burgdorferi per QC6 ELISA (≧30 U/mL), (%) (B. burgdorferi [2]; Day 221): 0.0%
- Number of Dogs Sero-converted to B. burgdorferi per QC6 ELISA (≧30 U/mL), No. (B. burgdorferi [2]; Day 221): 0
- Dogs Sero-converted to B. burgdorferi per QC6 ELISA (≧30 U/mL), (%) (B. burgdorferi [2]; Day 251): 0.0%
- Number of Dogs Sero-converted to B. burgdorferi per QC6 ELISA (≧30 U/mL), No. (B. burgdorferi [2]; Day 251): 0
- Dogs Sero-converted to B. burgdorferi per QC6 ELISA (≧30 U/mL), (%) (B. burgdorferi [2]; Day 281): 0.0%
- Number of Dogs Sero-converted to B. burgdorferi per QC6 ELISA (≧30 U/mL), No. (B. burgdorferi [2]; Day 281): 0
- Dogs Sero-converted to B. burgdorferi per QC6 ELISA (≧30 U/mL), (%) (B. burgdorferi [2]; Day 314): 0.0%
- Number of Dogs Sero-converted to B. burgdorferi per QC6 ELISA (≧30 U/mL), No. (B. burgdorferi [2]; Day 314): 0
- Elimination half-life [3]: about 133 hours
- Elimination half-life [4]: ~166 h
- Multiplex Assay OspF: MFI Mean ([5]; Day 48 (pre-treatment)): 922.75 MFI
- Multiplex Assay OspF: No. Dogs > Positive Threshold (# dogs > 1500) ([5]; Day 48 (pre-treatment)): 2
- Multiplex Assay OspF: No. Dogs > Positive Threshold (# dogs > 1500) ([5]; Day 48 (pre-treatment), monosodium salt): two
- Multiplex Assay OspF: MFI Mean ([5]; Day 111): 704.13 MFI
- Multiplex Assay OspF: No. Dogs > Positive Threshold (# dogs > 1500) ([5]; Day 111): 0
- Multiplex Assay OspF: MFI Mean ([5]; Day 145): 306.75 MFI
- Multiplex Assay OspF: No. Dogs > Positive Threshold (# dogs > 1500) ([5]; Day 145): 0
- Multiplex Assay OspF: MFI Mean ([5]; Day 179): 270.00 MFI
- Multiplex Assay OspF: No. Dogs > Positive Threshold (# dogs > 1500) ([5]; Day 179): 0
- Multiplex Assay OspF: MFI Mean ([5]; Day 221): 227.13 MFI
- Multiplex Assay OspF: No. Dogs > Positive Threshold (# dogs > 1500) ([5]; Day 221): 0
- Multiplex Assay OspF: MFI Mean ([5]; Day 251): 221.88 MFI
- Multiplex Assay OspF: No. Dogs > Positive Threshold (# dogs > 1500) ([5]; Day 251): 0
- Multiplex Assay OspF: MFI Mean ([5]; Day 281): 225.63 MFI
- Multiplex Assay OspF: No. Dogs > Positive Threshold (# dogs > 1500) ([5]; Day 281): 0
- Multiplex Assay OspF: MFI Mean ([5]; Day 314): 239.88 MFI
- Multiplex Assay OspF: No. Dogs > Positive Threshold (# dogs > 1500) ([5]; Day 314): 0
- Multiplex Assay OspF: MFI Mean ([5]; Day −15 (pre-infection)): 101.50 MFI
- Multiplex Assay OspF: No. Dogs > Positive Threshold (# dogs > 1500) ([5]; Day −15 (pre-infection)): 0
- Antibody-OspF status of dogs ([5]; after Day 48): all dogs negative thereafter
- Number of treated dogs with all joints free of pathology (B. burgdorferi [6]; dog, in vivo): one
- Number of treated dogs with skin sections with inflammatory and other changes as described for Lyme disease (B. burgdorferi [6]; of eight treated infected dogs): six
- Treated dogs with skin sections with inflammatory and other changes as described for Lyme disease (B. burgdorferi [6]; of eight treated infected dogs): 75%
- Joints that cultured positive for spirochetes (B. burgdorferi [6]; ten joints per dog, six in untreated dogs): none
- Grade of inflammatory changes in joints (B. burgdorferi [6]; untreated dogs: moderate to marked): none to mild
